Data published in US9051351B2, “Hepatocyte growth factor mimics as therapeutic agents” (Washington State University, priority 2011, dated 2015).
“Also recorded” adds a separate entry of the source. Where two headings read alike, the source gives them in different places. Where a SMILES comes first, the peptide text is derived from it. [ ]: non-standard residue; d: D form. The star is where a group is joined. Hexanoyl = CCCCCC(=O)*; Ahx = NCCCCCC(=O)O

What was measured:
c-Met = test: Augmentation of HGF-dependent c-Met phosphorylation in HEK293 cells; assay type: cell-based, human; conditions: HEK 293 cells, HGF+/−Dihexa, 30 minutes
Method: HGF mimetic activity was typically assessed by one or both of two methods: augmentation of HGF-dependent c-Met phosphorylation in HEK293 cells, or 2) augmentation of HGF-dependent cell scattering in MDCK cells. All the compounds in Family one were tested using the c-Met phosphorylation assay. […]
Human embryonic kidney cells 293 (HEK293), Madin Darby canine kidney cells (MDCK), and B16F10 murine melanoma cells were grown in DMEM, 10% fetal bovine serum (FBS). Cells were grown to 90-100% confluency before use. For most but not all studies HEK and MDCK cells were serum starved for 24 hours prior to the initiation of drug treatment.
HEK293 cells were seeded in 6 well tissue culture plates and grown to 95% confluency in DMEM containing 10% FBS. […] The lysate was clarified by centrifugation at 15,000 g for 15 minutes, protein concentrations were determined using the BCA total protein assay, and then appropriate volumes of the lysates were diluted with 2× reducing Laemmli buffer and heated for ten minutes at 95° C. […] Proteins were visualized using the Supersignal West Pico Chemiluminescent Substrate system (Pierce, Fenton, Mo.) and molecular weights determined by comparison to protein ladders (BenchMark, Invitrogen; and Kaleidoscope, BioRad). Images were digitized and analyzed using a UVP phosphoimager.

[1] = Serum metabolism of peptides in rat serum; assay type: in vitro ADME; conditions: male, Sprague Dawley, rat, rat serum
Method: Four month old male Sprague Dawley rats were used as the blood source for the metabolism studies. Blood was collected from left/right jugular veins of the rats using sterile catheters. After a 30 minute incubation on ice, the blood was centrifuged at 1000 rpm for 15 min to separate the serum. Serum was then transferred to clean tubes and stored at −20° C. until use.
Except for dihexa all drug solutions were prepared in HPLC grade water at 5 mg/ml. Stock drugs were kept in powder form and stored at −20° C. Serum metabolism experimental procedure and analysis. Rat blood serum samples were pre-equilibrated at 37° C. and then 10 μL (50 μg) of each drug solution was added to 90 μL of rat serum in 1.5 mL Eppendorf tube maintained at 37° C. At specified time intervals, metabolism was terminated by precipitating proteins with the addition of 1 ml of a solution of acetonitrile (ACN) and acetic acid (9:1, v/v). The terminated reaction mixture was stored in refrigerator (5° C.) overnight and centrifuged (14,000 rpm) for 30 min to remove precipitated proteins. The separated supernatant was dried in vacuum concentrator. The dried samples were reconstituted using 200 μL HPLC mobile phase (10% v/v ACN in water), vortexed briefly, and subjected to HPLC separation and analysis. A serum blank experiment to detect any interfering peaks in the HPLC chromatogram was performed by in an identical manner except that no drug was added. Zero time values for each drug candidate were established by first treating the serum with ACN, processing the sample as described above, adding drug, and then performing HPLC analysis.
The degradation rate of drug was determined by measuring the decrease in area under curve (AUC) at the retention time of drug over time. The AUC obtained from the zero time experiment was considered to represent the “100%” drug concentration and was used to determine the decreased drug concentration at each specified time interval. The semi-logarithmic plot of drug concentration vs. time was generated to determine degradation kinetic constant (k) of the tested drug. The half-life of drug was (t1/2) was calculated by 0.693/k.
Analysis of samples was performed using an HPLC system. The system consisted of a communications bus module, pumps, and a photodiode array detector. Separation was achieved using a C18 (250 mm×4.6 mm id., 5 μm particle size) reverse phase column. The column temperature was set at 40° C. The mobile phase consisted of a mixture of ACN and water with 0.1% TFA and was degassed by ultrasonication. Samples were introduced by manual mode with an injection volume of 250 μL. The drug was eluted with a flow rate of 1 mL/min and detected by PDA detector at […] wavelengths of 215 and 280 nm.

human HGF = biological target: T1, human HGF (Homo sapiens, UniProt P14210); test: HGF dimerization (PAGE, silver staining); assay type: biochemical; conditions: 30 minutes, heparin
T1 construct: purchased R&D Systems (Minneapolis, Minn.)
T1 sequence (P14210 32-728): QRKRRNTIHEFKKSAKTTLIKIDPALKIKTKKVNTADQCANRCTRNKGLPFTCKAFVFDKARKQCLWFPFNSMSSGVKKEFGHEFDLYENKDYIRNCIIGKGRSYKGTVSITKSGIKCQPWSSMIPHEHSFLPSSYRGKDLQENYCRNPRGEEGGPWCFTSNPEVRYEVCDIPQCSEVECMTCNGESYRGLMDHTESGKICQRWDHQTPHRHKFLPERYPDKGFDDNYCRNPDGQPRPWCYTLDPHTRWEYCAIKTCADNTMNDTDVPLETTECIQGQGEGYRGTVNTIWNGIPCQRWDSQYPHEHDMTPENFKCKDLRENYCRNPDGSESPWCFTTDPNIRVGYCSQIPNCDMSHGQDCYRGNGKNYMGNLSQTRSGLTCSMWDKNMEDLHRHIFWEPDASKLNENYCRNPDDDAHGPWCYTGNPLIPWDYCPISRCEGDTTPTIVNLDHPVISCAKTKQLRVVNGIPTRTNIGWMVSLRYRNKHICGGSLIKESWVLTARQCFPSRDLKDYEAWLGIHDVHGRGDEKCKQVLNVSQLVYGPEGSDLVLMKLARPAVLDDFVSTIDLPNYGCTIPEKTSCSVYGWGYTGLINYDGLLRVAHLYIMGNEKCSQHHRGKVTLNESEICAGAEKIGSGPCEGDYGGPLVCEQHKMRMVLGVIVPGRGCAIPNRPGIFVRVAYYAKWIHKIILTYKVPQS
Method: HGF dimerization was assessed using PAGE followed by silver staining (Kawas et al., 2011). Human HGF at a concentration of 0.08 ng/μl with or without 6-AH analogs was incubated with heparin at a final concentration of 5 μg/ml. Loading buffer was then added to each sample and the mixture separated by native PAGE using gradient Criterion XT precast gels (4-12% Bis-Tris; Biorad Laboratories, Hercules, Calif.). Next the gel was silver stained for the detection of the HGF monomers and dimers. Bands were quantitated from digital images using a UVP phosphoimager (Upland, Calif.).

hippocampal neurons = test: H2O2 oxidative stress in dissociated hippocampal neurons; assay type: cell-based; conditions: 100 μM H2O2 24 hrs +/− HGF 5 ng/ml and/or Dihexa
Method: FIG. 47. […] Dissociated hippocampal neurons were treated with 100 μM H2O2 for 24 hrs+/−HGF at sub-threshold concentrations 5 ng/ml and or Dihexa at 2 different concentrations 10^−8M and […]. (*p<0.05,** p<0.01; Mean+/−SEM).

In the case of CCCCCC(=O)N[C@@H](Cc1ccc(O)cc1)C(=O)N[C@H](C(=O)NCCCCCC(N)=O)[C@@H](C)CC [Dihexa, N-hexanoic-Tyr-Ile-(6)-aminohexanoic amide] (Hexanoyl-Tyr-Ile-[Ahx]-NH2), the “augmentation of HGF activation (phosphorylation) of c-Met” value (c-Met) is reported as “dramatically augment the ability of HGF to activate c-Met; also recorded: markedly augments the ability of HGF to signal to c-Met; also recorded: work synergistically to activate c-Met”, the half-life at 0.5 mg/mL ([1]; 37° C., Mean +/− SD, N = 3, read-out: Half-Life (min), serum stability) is reported as 336 min and the half-life at 0.5 mg/mL ([1]; read-out: t1/2 in rat serum) is reported as 330 min. For the same molecule, the “HGF dimerization in the presence of Dihexa” value (human HGF) was “blocking HGF dimerization; also recorded: blocks HGF dimerization” and the “protection of neurons from oxidative stress” value (hippocampal neurons) was “act synergistically to protect neurons; also recorded: protects neurons from oxidative stress”.
